Source: patent publication US20200128830A1, “FUSED BICYCLIC HETEROCYCLE DERIVATIVES AS PESTICIDES” (Bayer Aktiengesellschaft, priority 2017, published 2020)

Tests used:
Type in all cases: in vivo
[1] = tested on: Myzus persicae; test: Myzus persicae oral test; details: 120 h, mixed population of green peach aphids, after 5 days, read-out: efficacy; for pest or weed control at 4 ppm: application rate 4 ppm
Description: Myzus persicae—Oral Test [table] To produce a suitable active compound formulation, 1 part by weight of active compound is dissolved with the stated parts by weight of solvent and made up to the desired concentration with water. 50 μl of the active compound formulation are transferred into microtitre plates and made up to a final volume of 200 μl with 150 μl of IPL41 insect medium (33%+15% sugar). Subsequently, the plates are sealed with parafilm, which a mixed population of green peach aphids (Myzus persicae) within a second microtitre plate is able to puncture and imbibe the solution. After 5 days, the efficacy in % is determined. 100% means that all the aphids have been killed; 0% means that no aphids have been killed.

[2] = tested on: Lucilia cuprina; test: Lucilia cuprina test; details: application rate 100 ppm; L1 larvae on minced horsemeat; after 2 days
Description: Lucilia cuprina Test Solvent: Dimethyl Sulfoxide To produce a suitable active compound formulation, 10 mg of active compound are mixed with 0.5 ml of dimethyl sulfoxide, and the concentrate is diluted with water to the desired concentration. About 20 L1 larvae of the Australian sheep blowfly (Lucilia cuprina) are transferred into a test vessel containing minced horsemeat and the active compound preparation of the desired concentration. After 2 days, the kill in % is determined. 100% means that all the larvae have been killed; 0% means that no larvae have been killed.

[3] = tested on: Spodoptera frugiperda; test: Spodoptera frugiperda spray test; details: foliar, 168 h, application rate 100 g/ha, caterpillars on maize leaf discs, after 7 days, read-out: efficacy
Description: Spodoptera frugiperda—Spray Test [table] To produce a suitable active compound formulation, 1 part by weight of active compound is dissolved with the specified parts by weight of solvent and made up to the desired concentration with water containing an emulsifier concentration of 1000 ppm. To produce further test concentrations, the formulation is diluted with emulsifier-containing water. Leaf discs of maize (Zea mays) are sprayed with an active compound formulation of the desired concentration and, after drying, populated with caterpillars of the fall armyworm (Spodoptera frugiperda). After 7 days, the efficacy in % is determined. 100% means that all the caterpillars have been killed; 0% means that no caterpillar has been killed.

[4] = tested on: Phaedon cochleariae; test: Phaedon cochleariae spray test; details: foliar, 168 h, application rate 100 g/ha, larvae on Chinese cabbage leaf discs, after 7 days, read-out: efficacy
Description: Phaedon cochleariae—Spray Test
(§1) To produce a suitable active compound formulation, 1 part by weight of active compound is dissolved with the specified parts by weight of solvent and made up to the desired concentration with water containing an emulsifier concentration of 1000 ppm. To produce further test concentrations, the formulation is diluted with emulsifier-containing water.
Discs of Chinese cabbage leaves (Brassica pekinensis) are sprayed with an active compound formulation of the desired concentration and, after drying, populated with larvae of the mustard beetle (Phaedon cochleariae).
After 7 days, the efficacy in % is determined. 100% means that all the beetle larvae have been killed; 0% means that no beetle larvae have been killed.

[5] = tested on: Myzus persicae; test: Myzus persicae spray test; details: foliar, 120 h, application rate 100 g/ha, Chinese cabbage leaf discs infested by all stages, after 5 days, read-out: efficacy
Description: Myzus persicae—Spray Test [table] To produce a suitable active compound formulation, 1 part by weight of active compound is dissolved with the specified parts by weight of solvent and made up to the desired concentration with water containing an emulsifier concentration of 1000 ppm. To produce further test concentrations, the formulation is diluted with emulsifier-containing water. Discs of Chinese cabbage leaves (Brassica pekinensis) infested by all stages of the green peach aphid (Myzus persicae) are sprayed with an active compound formulation of the desired concentration. After 5 days, the efficacy in % is determined. 100% means that all the aphids have been killed; 0% means that no aphids have been killed.

[6] = tested on: Ctenocephalides felis; test: Ctenocephalides felis oral test; details: application rate 100 ppm in citrated cattle blood; unfed adult cat fleas; after 2 days
Description: Ctenocephalides felis—Oral Test Solvent: Dimethyl Sulfoxide To produce a suitable active compound formulation, 10 mg of active compound are mixed with 0.5 ml of dimethyl sulfoxide. Dilution with citrated cattle blood gives the desired concentration. About 20 unfed adult cat fleas (Ctenocephalides felis) are placed into a chamber which is closed at the top and bottom with gauze. A metal cylinder whose bottom end is closed with parafilm is placed onto the chamber. The cylinder contains the blood/active compound formulation, which can be imbibed by the fleas through the parafilm membrane. After 2 days, the kill in % is determined. 100% means that all of the fleas have been killed; 0% means that none of the fleas have been killed.

[7] = tested on: Musca domestica; test: Musca domestica test; details: application rate 100 ppm; adult houseflies, sponge with sugar solution; after 2 days
Description: Musca domestica Test Solvent: Dimethyl Sulfoxide To produce a suitable active compound formulation, 10 mg of active compound are mixed with 0.5 ml of dimethyl sulfoxide, and the concentrate is diluted with water to the desired concentration. Vessels containing a sponge treated with sugar solution and the desired concentration of active compound formulation are populated with 10 adult houseflies (Musca domestica). After 2 days, the kill in % is determined. 100% means that all of the flies have been killed; 0% means that none of the flies have been killed.

[8] = tested on: Tetranychus urticae; test: Tetranychus urticae spray test, OP-resistant; details: application rate 100 g/ha, bean leaf discs infested with all stages, after 6 days
Description: Tetranychus urticae—Spray Test, OP-Resistant
as §1
Discs of bean leaves (Phaseolus vulgaris) infested with all stages of the greenhouse red spider mite (Tetranychus urticae) are sprayed with an active compound formulation of the desired concentration.
After 6 days, the efficacy in % is determined. 100% means that all the spider mites have been killed; 0% means that no spider mites have been killed.

Row | Compound | pest or weed control at 4 ppm [1] | pest or weed control at 100 g/ha [3] | pest or weed control at 100 g/ha [4] | pest or weed control at 100 g/ha [5] | also measured
1 | CCS(=O)(=O)c1c(-c2nc3cc(C(F)(F)F)ncc3n2C)sc2ccsc12 [I-1] | 100% | – | – | – | efficacy (kill in %) [2]: 100%
2 | CCS(=O)(=O)c1c(-c2nc3cc(C(F)(F)F)ncc3n2C)sc2ccoc12 [I-2, 2-[6-(Ethylsulfonyl)thieno[3,2-b]furan-5-yl]-3-methyl-6-(trifluoromethyl)-3H-imidazo[4,5-c]pyridine] | 100% | – | – | – | efficacy (kill in %) [2]: 100%
3 | CCS(=O)(=O)c1c(-c2nc3cc(C(F)(F)F)ncc3n2C)sc2cc(C(F)(F)F)sc12 [I-3, 2-[3-(Ethylsulfonyl)-5-(trifluoromethyl)thieno[3,2-b]thiophen-2-yl]-3-methyl-6-(trifluoromethyl)-3H-imidazo[4,5-c]pyridine] | 100% | 100% | 100% | – | –
4 | CCS(=O)(=O)c1c(-c2nc3cc(C(F)(F)F)ncc3n2C)sc2c1CCC2 [I-4, 2-[3-(Ethylsulfonyl)-5,6-dihydro-4H-cyclopenta[b]thiophen-2-yl]-3-methyl-6-(trifluoromethyl)-3H-imidazo[4,5-c]pyridine] | 100% | – | – | – | efficacy (kill in %) [2]: 90%
5 | CCS(=O)(=O)c1c(-c2nc3cc(C(F)(F)F)ncc3n2C)sc2c(C#N)csc12 [I-5, 6-(Ethylsulfonyl)-5-[3-methyl-6-(trifluoromethyl)-3H-imidazo[4,5-c]pyridin-2-yl]thieno[3,2-b]thiophene-3-carbonitrile] | 100% | – | – | – | –
6 | CCS(=O)(=O)c1c(-c2nc3cc(C(F)(F)F)ncc3n2C)sc2c(NC(C)=O)csc12 [I-6, N-{6-(Ethylsulfonyl)-5-[3-methyl-6-(trifluoromethyl)-3H-imidazo[4,5-c]pyridin-2-yl]thieno[3,2-b]thiophen-3-yl}acetamide] | – | – | – | 90% | –
7 | CCS(=O)(=O)c1c(-c2nc3cc(C(F)(F)F)ncc3n2C)sc2cc(C(F)(F)F)sc12 [I-7] | – | – | – | 100% | efficacy (kill in %) [6]: 95%; efficacy (kill in %) [7]: 80%; efficacy [8]: 90%
8 | CCS(=O)(=O)c1c(-c2nc3cc(C(F)(F)F)ncc3n2C)sc2c(Br)csc12 [I-8, 2-[6-Bromo-3-(ethylsulfonyl)thieno[3,2-b]thiophen-2-yl]-3-methyl-6-(trifluoromethyl)-3H-imidazo[4,5-c]pyridine] | 100% | 100% | – | – | –
9 | CCS(=O)(=O)c1c(-c2nc3cc(C(F)(F)F)nnc3n2C)sc2nc(C(F)(F)F)sc12 [I-9] | 100% | 100% | 100% | – | –
10 | CCS(=O)(=O)c1c(-c2nc3cc(C(F)(F)F)ncc3n2C)sc2c(-c3cnn(C)c3)csc12 [I-11, 2-[3-(Ethylsulfonyl)-6-(1-methyl-1H-pyrazol-4-yl)thieno[3,2-b]thiophen-2-yl]-3-methyl-6-(trifluoromethyl)-3H-imidazo[4,5-c]pyridine] | 90% | – | 83% | 90% | –
11 | CCS(=O)(=O)c1c(-c2nc3cc(C(F)(F)F)ncc3n2C)sc2nc(C(F)(F)F)oc12 [I-12] | 100% | 100% | 100% | 100% | efficacy (kill in %) [6]: 80%; efficacy (kill in %) [7]: 85%; efficacy [8]: 90%
12 | CCS(=O)(=O)c1c(-c2nc3cc(C(F)(F)F)cnc3n2C)sc2nc(C(F)(F)F)sc12 [I-13] | 90% | 100% | 100% | – | –
13 | CCS(=O)(=O)c1c(-c2nc3cc(C(F)(F)C(F)(F)F)ncc3n2C)sc2nc(C(F)(F)F)sc12 [I-14] | 90% | 100% | 100% | 90% | –
14 | CCS(=O)(=O)c1c(-c2nc3cc(C(F)(F)F)ncc3n2C)sc2c(C(N)=O)csc12 [I-15, 6-(Ethylsulfonyl)-5-[3-methyl-6-(trifluoromethyl)-3H-imidazo[4,5-c]pyridin-2-yl]thieno[3,2-b]thiophene-3-carboxamide] | 100% | – | – | 90% | efficacy [8]: 90%
15 | CCS(=O)(=O)c1c(-c2nc3cc(C(F)(F)F)ncc3n2C)sc2c(-c3ccccc3)csc12 [I-16, 2-[3-(Ethylsulfonyl)-6-phenylthieno[3,2-b]thiophen-2-yl]-3-methyl-6-(trifluoromethyl)-3H-imidazo[4,5-c]pyridine] | 100% | 100% | – | 90% | –
16 | CCS(=O)(=O)c1c(-c2nc3cc(C(F)(F)F)nnc3n2C)sc2cc(C(F)(F)F)sc12 [I-18] | 100% | 100% | 100% | 100% | efficacy (kill in %) [6]: 100%; efficacy (kill in %) [7]: 80%
17 | CCS(=O)(=O)c1c(-c2nc3cc(C(F)(F)F)ncc3n2C)sc2c(NC(=O)C3CC3)csc12 [I-19] | – | – | – | – | pest or weed control at 0.8 ppm ([1]; application rate 0.8 ppm): 100%
18 | CCS(=O)(=O)c1c(-c2nc3cc(C(F)(F)F)ncc3n2C)sc2c(-n3cc(Cl)cn3)csc12 [I-20, 2-[6-(4-Chloro-1H-pyrazol-1-yl)-3-(ethylsulfonyl)thieno[3,2-b]thiophen-2-yl]-3-methyl-6-(trifluoromethyl)-3H-imidazo[4,5-c]pyridine] | 100% | 100% | 100% | – | –
19 | CCS(=O)(=O)c1c(-c2nc3cc(C(F)(F)F)ncc3n2C)sc2c(-n3cnc(C(F)(F)F)c3)csc12 [I-21] | 100% | 100% | 100% | 90% | –
20 | CCS(=O)(=O)c1c(-c2nc3cc(C(F)(F)F)ncc3n2C)sc2cc(C)sc12 [I-22] | 100% | – | – | 90% | –
21 | CCS(=O)(=O)c1c(-c2nc3cc(C(F)(F)F)ncc3n2C)sc2c(C3CC3)csc12 [I-23] | 100% | 100% | – | – | –
22 | CCS(=O)(=O)c1c(-c2nc3cc(C(F)(F)F)ncc3n2C)sc2c(C(=O)NC)csc12 [I-24] | 100% | – | – | 90% | –
23 | CCS(=O)(=O)c1c(-c2nc3cc(C(F)(F)F)ncc3n2C)sc2cc(Cl)sc12 [I-25] | 100% | 100% | – | 90% | –
24 | CCS(=O)(=O)c1c(-c2nc3cc(C(F)(F)F)ncc3n2C)sc2c1C(=O)CC2 [I-30] | – | – | – | – | efficacy [8]: 90%
